Measurements from ChEMBL document CHEMBL1201862, “PubChem BioAssay data set” (2004).
Activity calls are given as the source filed them.

Experiments:
[1] = Luminescent dose response cell-based high throughput screening assay for inhibitors of the Janus kinase 2 mutant JAK2V617F. [Related pubchem assays: 1446 (Primary screen.), 1521 (Confirmation assay.), 1486 (Counter screen.)]; type: functional
[2] = biological target: Luciferin 4-monooxygenase (Photinus pyralis, UniProt P08659); experiment: firefly luciferase enzyme inhibitors, dose response, biochemical, luminescence (AID 1891)
[3] = Luminescence Cell-Based Dose Confirmation HTS to Identify Inhibitors of Platelet Dense Granule Release. [Related pubchem assays: 1663 (Primary HTS), 1678 (Summary of Project)]; type: functional
[4] = microbe, parasite or virus in culture; type: functional; details: Mycobacterium tuberculosis
[5] = biological target: T1, Sphingosine 1-phosphate receptor 4 (Homo sapiens, UniProt O95977); experiment: Late stage fluorescence dose response cell-based screening assay for antagonists of the Sphingosine 1-Phosphate Receptor 4 (S1P4). [Related pubchem assays: 1524 (Confirmation screen (S1P4 antagonists).), 1510 (Primary screen (S1P4 antagonists).), 1853 (Summary AID (S1P4 antagonists).), 1692 (Dose response screen (S1P4 antagonists).)]; type: functional
T1 sequence (O95977 whole entry): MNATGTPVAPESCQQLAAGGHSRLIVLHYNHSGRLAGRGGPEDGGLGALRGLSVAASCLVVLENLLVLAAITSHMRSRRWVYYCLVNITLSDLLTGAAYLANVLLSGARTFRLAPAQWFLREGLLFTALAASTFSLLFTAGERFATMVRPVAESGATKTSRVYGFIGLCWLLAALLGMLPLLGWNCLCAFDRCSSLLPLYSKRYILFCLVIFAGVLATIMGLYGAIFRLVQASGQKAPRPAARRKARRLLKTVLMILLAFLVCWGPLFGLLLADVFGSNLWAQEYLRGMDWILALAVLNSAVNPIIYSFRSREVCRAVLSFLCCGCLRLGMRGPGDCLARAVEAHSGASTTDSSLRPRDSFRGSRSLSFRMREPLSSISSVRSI

[6] = biological target: T1, Sphingosine 1-phosphate receptor 4; experiment: Fluorescence dose response cell-based high throughput screening assay for antagonists of the Sphingosine 1-Phosphate Receptor 4 (S1P4). [Related pubchem assays: 1524 (Confirmation in triplicates.), 1510 (Primary screen.)]; type: functional
[7] = biological target: Sphingosine 1-phosphate receptor 1 (Homo sapiens, UniProt P21453); type: functional;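 further: Tango beta-arrestin reporter U2OS cells stimulated with S1P near its EC80; inhibitor potency meaning antagonism of receptor activation by the natural agonist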
[8] = biological target: T2, Heat shock factor protein 1 (Mus musculus, UniProt P38532); experiment: HSF1 potentiators in luciferase reporter cells, confirmation, cell-based, NIH3T3, luminescence, dose retest (AID 435004); type: functional;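 further: stress induced by proteasome inhibitor MG132 added 30 min after compound; luciferase reporter driven by HSF1 response element in NIH3T3 cells; actives raise luminescence as potentiators of the MG132 stress response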
T2 sequence (P38532 whole entry): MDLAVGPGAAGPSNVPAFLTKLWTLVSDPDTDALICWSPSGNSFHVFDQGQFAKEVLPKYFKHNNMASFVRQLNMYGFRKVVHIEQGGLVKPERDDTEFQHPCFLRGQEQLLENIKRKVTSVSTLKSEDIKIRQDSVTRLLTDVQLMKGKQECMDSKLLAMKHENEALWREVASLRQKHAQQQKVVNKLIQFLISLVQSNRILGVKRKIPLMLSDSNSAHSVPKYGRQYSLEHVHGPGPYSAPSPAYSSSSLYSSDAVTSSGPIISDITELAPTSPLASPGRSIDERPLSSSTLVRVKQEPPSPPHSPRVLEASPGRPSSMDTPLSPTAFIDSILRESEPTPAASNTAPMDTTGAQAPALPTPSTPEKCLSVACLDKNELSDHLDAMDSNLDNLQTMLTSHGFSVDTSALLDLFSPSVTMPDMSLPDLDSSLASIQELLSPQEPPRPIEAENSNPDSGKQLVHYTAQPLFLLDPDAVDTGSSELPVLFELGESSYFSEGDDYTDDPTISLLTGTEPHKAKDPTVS

Vero = experiment: cells; type: functional; details: Chlorocebus sabaeus
Heat shock protein HSP90 = Heat shock protein HSP90 (Homo sapiens, UniProt P07900+P08238); experiment: tumor Hsp90 inhibitor potency, dose response (AID 712); type: functional
Bcl-2-related protein A1 [9] = biological target: T3, Bcl-2-related protein A1 (Mus musculus, UniProt Q07440); experiment: Bfl-1 inhibitors, primary screen, biochemical, fluorescence polarization, FITC-Bid, mouse (AID 432)
T3 sequence (Q07440 whole entry): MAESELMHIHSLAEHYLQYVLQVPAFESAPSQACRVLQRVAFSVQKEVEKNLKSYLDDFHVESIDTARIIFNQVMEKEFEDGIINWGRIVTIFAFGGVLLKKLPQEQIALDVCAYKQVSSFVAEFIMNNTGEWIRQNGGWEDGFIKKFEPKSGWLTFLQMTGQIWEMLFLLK

Bcl-2-related protein A1 [10] = biological target: T3, Bcl-2-related protein A1; experiment: Bfl-1 inhibitors blocking BH3 peptide binding, confirmation, biochemical, TR-FRET, mouse Bfl-1 (AID 621);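 further: TR-FRET binding of GST-Bfl-1 to FITC-labelled Bid peptide via terbium antibody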
[11] = biological target: Glyceraldehyde-3-phosphate dehydrogenase (Homo sapiens, UniProt P04406)
Bcl-2-related protein A1 [12] = biological target: T3, Bcl-2-related protein A1; experiment: Bfl-1 binding inhibitors, SAR follow-up, biochemical, fluorescence polarization (AID 1070)
NADPH oxidase 1 = biological target: T4, NADPH oxidase 1 (Homo sapiens, UniProt Q9Y5S8); experiment: Late-stage luminescence-based cell-based dose response assay to identify inhibitors of NADPH oxidase 1 (NOX1): Synthesized analogs.; type: functional
T4 sequence (Q9Y5S8 whole entry): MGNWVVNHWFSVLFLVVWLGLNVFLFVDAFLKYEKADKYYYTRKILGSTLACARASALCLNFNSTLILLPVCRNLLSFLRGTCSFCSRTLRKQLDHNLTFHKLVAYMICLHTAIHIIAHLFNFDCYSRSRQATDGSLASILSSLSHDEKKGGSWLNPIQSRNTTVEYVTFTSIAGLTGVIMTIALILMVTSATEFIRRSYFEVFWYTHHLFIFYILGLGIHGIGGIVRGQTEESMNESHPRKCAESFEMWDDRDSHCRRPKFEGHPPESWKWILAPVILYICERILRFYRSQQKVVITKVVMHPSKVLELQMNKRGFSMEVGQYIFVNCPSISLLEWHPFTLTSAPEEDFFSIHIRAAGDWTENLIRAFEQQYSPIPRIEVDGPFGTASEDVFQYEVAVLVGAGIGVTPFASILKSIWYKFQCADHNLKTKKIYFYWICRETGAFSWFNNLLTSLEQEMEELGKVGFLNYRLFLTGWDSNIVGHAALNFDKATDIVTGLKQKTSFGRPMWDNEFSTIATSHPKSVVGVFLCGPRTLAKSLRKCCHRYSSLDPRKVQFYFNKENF

[13] = biological target: E3 ubiquitin-protein ligase Mdm2 (Homo sapiens, UniProt Q00987); experiment: enhancers of MDM2-luciferase reporter signal, concentration-effect titration, project on inhibitors of MDM2 ubiquitin ligase, cellular assay, luminescent readout, 384-well plate format (AID 1394); type: functional;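 further: MDM2 E3 inhibitors raise luminescence so EC50 is for signal enhancement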
Chain of E3 ubiquitin-protein ligase Mdm2 (Q00987 whole entry): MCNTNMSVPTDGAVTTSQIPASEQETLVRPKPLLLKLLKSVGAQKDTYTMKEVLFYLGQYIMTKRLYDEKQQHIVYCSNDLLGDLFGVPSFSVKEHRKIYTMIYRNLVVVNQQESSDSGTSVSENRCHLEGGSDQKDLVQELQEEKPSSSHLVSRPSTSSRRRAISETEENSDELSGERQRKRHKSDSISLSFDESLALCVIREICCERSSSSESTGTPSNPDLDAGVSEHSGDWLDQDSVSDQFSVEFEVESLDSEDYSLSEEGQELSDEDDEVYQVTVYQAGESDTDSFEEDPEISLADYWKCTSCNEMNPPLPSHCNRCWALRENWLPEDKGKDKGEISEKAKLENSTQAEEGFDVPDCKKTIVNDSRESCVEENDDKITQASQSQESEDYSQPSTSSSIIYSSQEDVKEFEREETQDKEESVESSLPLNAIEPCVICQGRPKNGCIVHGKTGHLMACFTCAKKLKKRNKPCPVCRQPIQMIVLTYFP

Chain of Sphingosine 1-phosphate receptor 1 (P21453 whole entry): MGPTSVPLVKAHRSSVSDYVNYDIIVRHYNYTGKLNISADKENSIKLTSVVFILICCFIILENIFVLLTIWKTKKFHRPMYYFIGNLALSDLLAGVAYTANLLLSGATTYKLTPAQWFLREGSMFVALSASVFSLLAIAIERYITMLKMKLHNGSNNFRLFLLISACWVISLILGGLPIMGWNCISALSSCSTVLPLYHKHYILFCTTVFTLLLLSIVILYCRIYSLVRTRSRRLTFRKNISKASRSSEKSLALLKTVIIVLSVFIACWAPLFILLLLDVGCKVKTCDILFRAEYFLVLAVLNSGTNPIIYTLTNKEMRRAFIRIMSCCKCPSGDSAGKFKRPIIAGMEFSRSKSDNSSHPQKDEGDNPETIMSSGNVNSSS
Chain of Luciferin 4-monooxygenase (P08659 whole entry): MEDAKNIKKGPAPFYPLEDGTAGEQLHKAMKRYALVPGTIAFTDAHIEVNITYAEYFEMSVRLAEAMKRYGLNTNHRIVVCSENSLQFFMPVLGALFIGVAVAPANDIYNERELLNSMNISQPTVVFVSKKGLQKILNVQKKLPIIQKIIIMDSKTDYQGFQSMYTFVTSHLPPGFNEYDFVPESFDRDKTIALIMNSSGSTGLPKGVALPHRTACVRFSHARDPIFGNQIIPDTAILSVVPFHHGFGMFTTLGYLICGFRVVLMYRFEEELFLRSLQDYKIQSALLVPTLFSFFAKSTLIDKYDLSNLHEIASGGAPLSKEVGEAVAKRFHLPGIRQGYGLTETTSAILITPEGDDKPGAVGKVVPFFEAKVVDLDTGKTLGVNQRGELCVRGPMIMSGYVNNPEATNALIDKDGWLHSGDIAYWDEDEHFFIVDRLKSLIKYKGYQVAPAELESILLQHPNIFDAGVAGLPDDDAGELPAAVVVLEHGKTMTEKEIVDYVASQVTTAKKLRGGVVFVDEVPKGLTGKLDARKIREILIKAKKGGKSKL
Chain of Glyceraldehyde-3-phosphate dehydrogenase (P04406 whole entry): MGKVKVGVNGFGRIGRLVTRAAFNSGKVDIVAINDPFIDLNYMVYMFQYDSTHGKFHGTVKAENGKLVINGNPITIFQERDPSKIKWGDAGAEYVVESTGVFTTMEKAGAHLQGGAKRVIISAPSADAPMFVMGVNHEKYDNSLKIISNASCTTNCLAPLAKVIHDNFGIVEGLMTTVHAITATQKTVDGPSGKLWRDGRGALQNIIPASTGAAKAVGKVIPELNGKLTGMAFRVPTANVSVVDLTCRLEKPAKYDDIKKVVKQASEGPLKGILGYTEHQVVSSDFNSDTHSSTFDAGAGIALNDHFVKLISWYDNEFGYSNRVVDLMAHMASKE

O=C(C=C=Nc1ccccc1)C(=O)N=C=Cc1ccccc1
IC50 [1]: 1.91 µM (active)
EC50 [2]: > 112 µM (not active)
EC50 [3]: 47 µM (active)
CC50 [4]: 16.6 µM (active)
IC50 [5]: 4.55 µM (not active)
IC50 [6]: 0.972 µM (active)
IC50 [7]: > 49.8 µM (not active)
EC50 [8]: 5.61 µM (inconclusive)
CC50 (Vero): 18.9 µM (active)

Cc1cccc(NC(=O)c2c(O)c3cccc4c3n(c2=O)CCC4)n1
IC50 (Heat shock protein HSP90): > 50 µM

COC(=O)Cn1c2c(c3cc(C)ccc31)CCCC2
IC50 (Bcl-2-related protein A1 [9]): > 100 µM (not active)
IC50 (Bcl-2-related protein A1 [10]): > 100 µM (not active)

CS(=O)(=O)c1nc(-c2ccc3ccccc3c2)cc(C(F)(F)F)n1
IC50 [11]: > 100 µM (not active)
IC50 (Bcl-2-related protein A1 [10]): > 100 µM (not active)
IC50 (Bcl-2-related protein A1 [12]): > 100 µM (not active)

COC(=O)Nc1ccc2c(c1)N(C(=O)CCCl)c1ccccc1S2
IC50 (NADPH oxidase 1): > 50 µM (not active)

CCOC(=O)N1C/C(=C\c2ccccc2)C(=O)/C(=C/c2ccccc2)C1
EC50 [13]: 0.61 µM (active)
CC50 (Vero): 23 µM (active)
